Results on 11 compounds are retold here after ChEMBL document CHEMBL1146362, “Organoiodine(III) mediated synthesis of 3,9-diaryl- and 3,9-difuryl-bis-1,2,4-triazolo[4,3-a][4,3-c]pyrimidines as antibacterial agents” (2007).

Converted amounts (≈) assume the structure as drawn. The source made the active and inactive calls. The calls are words filed in the database; no cut-off is given here.

The test system of assay [1] is Staphylococcus epidermidis. Kind of assay: Antibacterial activity against Staphylococcus epidermidis MTCC 2639 after 24 hrs by agar diffusion assay. It counts as functional.
For assay [2], the system named is Salmonella typhi. Kind of assay: Antibacterial activity against Salmonella typhi MTCC 733 after 24 hrs by agar diffusion assay. It counts as functional, Salmonella enterica subsp. enterica serovar Typhi. In general terms: A growth-free zone around the sample is the usual read-out of agar diffusion tests.
Assay [3] concerns Staphylococcus epidermidis. The assay can be described thus: Antibacterial activity against Staphylococcus epidermidis MTCC 2639 after 24 hrs by agar dilution assay. The class given is functional. The note with it: MTCC 2639, 24 h. A general note: Agar dilution tests growth on a series of plates holding different concentrations.
The test system of assay [4] is Staphylococcus aureus. The assay can be described thus: Antibacterial activity against Staphylococcus aureus MTCC 3160 after 24 hrs by agar dilution assay. It counts as functional. The settings on record: MTCC 3160, 24 h.
Assay [5] relates to Escherichia coli. The assay can be described thus: Antibacterial activity against Escherichia coli MTCC 51 after 24 hrs by agar dilution assay. The class given is functional. The settings on record: MTCC 51, 24 h.
For assay [6], the system named is Bacillus subtilis. Kind of assay: Antibacterial activity against Bacillus subtilis MTCC 121 after 24 hrs by agar dilution assay. It counts as functional. The settings on record: MTCC 121, 24 h.
The subject of assay [7] is Escherichia coli. The assay can be described thus: Antibacterial activity against Escherichia coli MTCC 51 after 24 hrs by agar diffusion assay. It counts as functional.
For assay [8], the system named is Staphylococcus aureus. Kind of assay: Antibacterial activity against Staphylococcus aureus MTCC 3160 after 24 hrs by agar diffusion assay. It counts as functional.
The test system of assay [9] is Salmonella typhi. Kind of assay: Antibacterial activity against Salmonella typhi MTCC 733 after 24 hrs by agar dilution assay. The class given is functional, Salmonella enterica subsp. enterica serovar Typhi. The settings on record: Salmonella enterica, MTCC 733, 24 h.
Assay [10] relates to Bacillus subtilis. Kind of assay: Antibacterial activity against Bacillus subtilis MTCC 121 after 24 hrs by agar diffusion assay. The class given is functional.

What is called MIC is the least concentration at which growth counts as inhibited. High values mean a less susceptible organism, low ones a more susceptible organism. Turning to `COc1ccc(-c2nnc3n2ccc2nnc(-c4ccc(OC)cc4)n23)cc1`, the outcome (in assay [1]; in the assay with Escherichia coli [7]) was inactive. Further, the figures for the “inhibition zone (IZ)” value in the assay on Salmonella typhi [2], in the assay on Staphylococcus aureus [8] and in the assay on Bacillus subtilis [10] were 10 mm, 10.83 mm and 10 mm, respectively. The MIC was more than 64 µg/mL in assay [3]; 64 µg/mL (≈ 172 µM) in the assay with Staphylococcus aureus [4]; more than 64 µg/mL with Escherichia coli [5]; 64 µg/mL (≈ 172 µM) against Bacillus subtilis [6]; 64 µg/mL (≈ 172 µM) in the assay with Salmonella typhi [9].
`COc1ccc(OC)c(-c2nnc3n2ccc2nnc(-c4cc(OC)ccc4OC)n23)c1`: the “inhibition zone (IZ)” value is 20 mm in assay [1], 20 mm in the assay on Salmonella typhi [2], 20.16 mm in the assay with Staphylococcus aureus [8] and 15.16 mm in the assay on Bacillus subtilis [10]. Also, the MIC was 8 µg/mL (≈ 18.5 µM) in assay [3]; 8 µg/mL (≈ 18.5 µM) in the assay on Staphylococcus aureus [4]; more than 64 µg/mL in the assay with Escherichia coli [5]; 32 µg/mL (≈ 74 µM) against Bacillus subtilis [6]; 8 µg/mL (≈ 18.5 µM) against Salmonella typhi [9]. Moreover, the outcome with Escherichia coli [7] was inactive.
As to `Clc1ccc(-c2nnc3n2ccc2nnc(-c4ccc(Cl)cc4)n23)cc1`, the outcome (in assay [1]; with Escherichia coli [7]) was inactive. Also, the “inhibition zone (IZ)” value was 20 mm in the assay with Salmonella typhi [2], 15 mm in the assay with Staphylococcus aureus [8] and 20 mm in the assay with Bacillus subtilis [10]. Also, the MIC in [3] was more than 64 µg/mL; with Staphylococcus aureus [4], 32 µg/mL (≈ 83.9 µM); against Escherichia coli [5] it was more than 64 µg/mL; in the assay on Bacillus subtilis [6], 8 µg/mL (≈ 21 µM); against Salmonella typhi [9], 8 µg/mL (≈ 21 µM).
For the compound `N[C@@H](C(=O)N[C@@H]1C(=O)N2C(C(=O)O)=C(Cl)CS[C@H]12)c1ccccc1` [CEFACLOR ANHYDROUS], the MIC in [3] was determined as 4 µg/mL (≈ 10.9 µM); with Staphylococcus aureus [4], 4 µg/mL (≈ 10.9 µM); in the assay with Escherichia coli [5] it was 4 µg/mL (≈ 10.9 µM); with Bacillus subtilis [6], 8 µg/mL (≈ 21.8 µM); with Salmonella typhi [9] it was 2 µg/mL (≈ 5.44 µM).
Turning to `Fc1ccc(-c2nnc3n2ccc2nnc(-c4ccc(F)cc4)n23)cc1`, the “inhibition zone (IZ)” value in [1] worked out at 25 mm; in the assay with Salmonella typhi [2], 10 mm; with Staphylococcus aureus [8], 24.83 mm; in the assay on Bacillus subtilis [10], 25 mm. For the same compound, the MIC came to 4 µg/mL (≈ 11.5 µM) in assay [3]; 4 µg/mL (≈ 11.5 µM) in the assay with Staphylococcus aureus [4]; 4 µg/mL (≈ 11.5 µM) against Escherichia coli [5]; 2 µg/mL (≈ 5.74 µM) in the assay with Bacillus subtilis [6]; 64 µg/mL (≈ 184 µM) with Salmonella typhi [9]. The outcome in the assay on Escherichia coli [7] was inactive.
With `Cc1ccc(-c2nnc3n2ccc2nnc(-c4ccc(C)cc4)n23)cc1`, the outcome (in assay [1]; in the assay on Salmonella typhi [2] (Salmonella enterica subsp. enterica serovar Typhi); in the assay with Escherichia coli [7]; in the assay with Staphylococcus aureus [8]) was inactive. Further, the MIC in assay [3] is more than 64 µg/mL; in the assay on Staphylococcus aureus [4], more than 64 µg/mL; with Escherichia coli [5] it was more than 64 µg/mL; against Bacillus subtilis [6], 8 µg/mL (≈ 23.5 µM); against Salmonella typhi [9], more than 64 µg/mL. Further, the “inhibition zone (IZ)” value in the assay on Bacillus subtilis [10] worked out at 20.83 mm.
As to `CC(=O)NC[C@H]1CN(c2ccc(N3CCOCC3)c(F)c2)C(=O)O1` [LINEZOLID], the minimal inhibitory concentration (MIC) in assay [3] worked out at 8 µg/mL (≈ 23.7 µM); with Escherichia coli [5], 8 µg/mL (≈ 23.7 µM); against Bacillus subtilis [6], 2 µg/mL (≈ 5.93 µM); with Salmonella typhi [9] it was 2 µg/mL (≈ 5.93 µM).
Turning to `c1coc(-c2nnc3n2ccc2nnc(-c4ccco4)n23)c1`, the “inhibition zone (IZ)” value in [1] worked out at 10 mm; in the assay with Salmonella typhi [2] it was 10 mm; with Escherichia coli [7] it was 10 mm; with Staphylococcus aureus [8], 40 mm; in the assay with Bacillus subtilis [10], 20 mm. Besides, the MIC in [3] stood at 64 µg/mL (≈ 219 µM); in the assay on Staphylococcus aureus [4], 0.5 µg/mL (≈ 1.71 µM); with Escherichia coli [5], 64 µg/mL (≈ 219 µM); in the assay on Bacillus subtilis [6], 8 µg/mL (≈ 27.4 µM); in the assay on Salmonella typhi [9] it was 64 µg/mL (≈ 219 µM).
With `O=[N+]([O-])c1ccc(-c2nnc3n2ccc2nnc(-c4ccc([N+](=O)[O-])o4)n23)o1`, the “inhibition zone (IZ)” value is on record as 35 mm in [1]; 35.16 mm in the assay on Salmonella typhi [2]; 30 mm with Escherichia coli [7]; 20.83 mm with Staphylococcus aureus [8]; 40 mm in the assay with Bacillus subtilis [10]. The MIC is 1 µg/mL (≈ 2.62 µM) in [3]; 8 µg/mL (≈ 20.9 µM) in the assay with Staphylococcus aureus [4]; 2 µg/mL (≈ 5.23 µM) against Escherichia coli [5]; 0.5 µg/mL (≈ 1.31 µM) against Bacillus subtilis [6]; 1 µg/mL (≈ 2.62 µM) in the assay on Salmonella typhi [9].
For the compound `Brc1ccc(-c2nnc3n2ccc2nnc(-c4ccc(Br)cc4)n23)cc1`, the result (in assay [1]; in the assay with Escherichia coli [7]; with Staphylococcus aureus [8]; in the assay on Bacillus subtilis [10]) was inactive. Also, in the assay with Salmonella typhi [2], the “inhibition zone (IZ)” value is 15 mm. In addition, the MIC in [3] is more than 64 µg/mL; in the assay on Staphylococcus aureus [4], more than 64 µg/mL; in the assay on Escherichia coli [5] it was more than 64 µg/mL; against Bacillus subtilis [6], more than 64 µg/mL; against Salmonella typhi [9], 32 µg/mL (≈ 68.1 µM).
On to `O=[N+]([O-])c1ccc(-c2nnc3n2ccc2nnc(-c4ccc([N+](=O)[O-])cc4)n23)cc1`, for which the “inhibition zone (IZ)” value in assay [1] is given as 25.16 mm; in the assay with Salmonella typhi [2] it was 30 mm; in the assay with Escherichia coli [7], 25 mm; in the assay on Staphylococcus aureus [8], 30 mm; in the assay on Bacillus subtilis [10], 30 mm. For the same compound, the MIC in [3] amounted to 2 µg/mL (≈ 4.97 µM); against Staphylococcus aureus [4], 1 µg/mL (≈ 2.49 µM); in the assay on Escherichia coli [5], 2 µg/mL (≈ 4.97 µM); against Bacillus subtilis [6], 1 µg/mL (≈ 2.49 µM); in the assay on Salmonella typhi [9], 1 µg/mL (≈ 2.49 µM).
